Among the data in the NIST ThermoML archive (doi:10.1016/j.jct.2015.02.023) are activity coefficient values, retold here.

± gives the expanded uncertainty stated by the source.

The data set can be described thus: activity coefficient (dimensionless); of the first substance listed, at infinite dilution; xn = mol fraction of the nth substance listed. The conditions noted are these: 101.33 kPa, Liquid, Chromatography, x1 = 0.

For the compound `CCCCCCCCCC` [decane] + CCn1cc[n+](C)c1.CO[PH](=O)[O-], the activity coefficient (313.15 K) turned out to be 882 ± 61, the activity coefficient (333.15 K) stood at 704 ± 48 and the activity coefficient (353.15 K) worked out at 582 ± 40.
Regarding `CCC(=O)CC` [pentan-3-one] + CO[PH](=O)[O-].Cn1cc[n+](C)c1, the activity coefficient stood at 10.2 ± 0.7 (313.15 K), 10.1 ± 0.7 (323.15 K), 10.1 ± 0.7 (333.15 K) and 10 ± 0.7 (343.15 K).
As to `CCc1ccccc1` [ethylbenzene] + CO[PH](=O)[O-].Cn1cc[n+](C)c1, the activity coefficient is, setting by setting: (313.15 K) 22.7 ± 1.6; (323.15 K) 22.1 ± 1.5; (333.15 K) 21.7 ± 1.5; (343.15 K) 21.5 ± 1.5.
`CCC(=O)CC` [pentan-3-one] + CCn1cc[n+](C)c1.CO[PH](=O)[O-]: the activity coefficient reads like this: (313.15 K) 5.77 ± 0.39; (333.15 K) 5.88 ± 0.4; (353.15 K) 6 ± 0.41; (373.15 K) 6.17 ± 0.42.
Regarding `CCCCCCCCCCCCC` [tridecane] + CCn1cc[n+](C)c1.CO[PH](=O)[O-], the activity coefficient (313.15 K) is 2560 ± 180, the activity coefficient (333.15 K) was 2130 ± 150, the activity coefficient (353.15 K) was 1850 ± 130 and the activity coefficient (373.15 K) came to 1300 ± 89.
On to `Cc1ccccc1` [toluene] + CCn1cc[n+](C)c1.CO[PH](=O)[O-], for which the activity coefficient is 6.53 ± 0.45 (313.15 K), 6.63 ± 0.45 (333.15 K), 6.82 ± 0.46 (353.15 K) and 7.16 ± 0.49 (373.15 K).
On the same counts, the results for `c1ccsc1` [thiophene] + CCn1cc[n+](C)c1.CO[PH](=O)[O-] are 1.99 ± 0.14, 2.16 ± 0.15, 2.5 ± 0.17 and 2.64 ± 0.18.
`C1CCCCCC1` [cycloheptane] + CO[PH](=O)[O-].Cn1cc[n+](C)c1: the activity coefficient (313.15 K) stood at 250 ± 17.
As to `CC(C)O` [propan-2-ol] + CCn1cc[n+](C)c1.CO[PH](=O)[O-], the activity coefficient is, setting by setting: (333.15 K) 0.261 ± 0.03; (353.15 K) 0.294 ± 0.031; (373.15 K) 0.314 ± 0.031.
In the case of `CCC[N+](=O)[O-]` [1-nitropropane] + CO[PH](=O)[O-].Cn1cc[n+](C)c1, the activity coefficient is, setting by setting: (313.15 K) 3.41 ± 0.23; (323.15 K) 3.35 ± 0.23; (333.15 K) 3.29 ± 0.22; (343.15 K) 3.29 ± 0.22.
For `CC#N` [acetonitrile] + CO[PH](=O)[O-].Cn1cc[n+](C)c1, the activity coefficient turned out to be 1.1 ± 0.07 (313.15 K), 1.11 ± 0.07 (323.15 K), 1.12 ± 0.07 (333.15 K) and 1.12 ± 0.07 (343.15 K).
For `CCc1ccccc1` [ethylbenzene] + CCn1cc[n+](C)c1.CO[PH](=O)[O-], the activity coefficient came out at 11.4 ± 0.8 (313.15 K), 11.6 ± 0.8 (333.15 K), 11.7 ± 0.8 (353.15 K) and 11.9 ± 0.8 (373.15 K).
With `ClC(Cl)(Cl)Cl` [tetrachloromethane] + CO[PH](=O)[O-].Cn1cc[n+](C)c1, the activity coefficient runs as follows: (313.15 K) 6.57 ± 0.45; (323.15 K) 6.83 ± 0.47; (333.15 K) 7.03 ± 0.48.
As for `Cc1ccc(C)cc1` [1,4-dimethylbenzene] + CO[PH](=O)[O-].Cn1cc[n+](C)c1, the activity coefficient was 23.4 ± 1.6 (313.15 K), 23.4 ± 1.6 (323.15 K), 22.7 ± 1.6 (333.15 K) and 22 ± 1.5 (343.15 K).
On to `CCCO` [propan-1-ol] + CCn1cc[n+](C)c1.CO[PH](=O)[O-], for which the activity coefficient runs as follows: (353.15 K) 0.207 ± 0.029; (373.15 K) 0.214 ± 0.029.
For `CCCCCCCCC` [nonane] + CO[PH](=O)[O-].Cn1cc[n+](C)c1, the activity coefficient by setting is: (313.15 K) 1070 ± 74; (323.15 K) 1050 ± 72.
On to `CO` [methanol] + CO[PH](=O)[O-].Cn1cc[n+](C)c1, for which the activity coefficient (343.15 K) is 0.07 ± 0.03.
For the compound `CCCCCCCC` [octane] + CCn1cc[n+](C)c1.CO[PH](=O)[O-], under “313.15 K”, the activity coefficient amounted to 461 ± 32.
As for `CCCCCCCCCCCCC` [tridecane] + CO[PH](=O)[O-].Cn1cc[n+](C)c1, the activity coefficient is, setting by setting: (313.15 K) 2380 ± 160; (323.15 K) 2220 ± 150; (333.15 K) 2160 ± 150; (343.15 K) 2120 ± 150.
Consider `CC1CCCCC1` [methylcyclohexane] + CO[PH](=O)[O-].Cn1cc[n+](C)c1, for which, for the setting “313.15 K”, the activity coefficient worked out at 257 ± 18.
For `c1ccsc1` [thiophene] + CO[PH](=O)[O-].Cn1cc[n+](C)c1, the activity coefficient by setting is: (313.15 K) 2.47 ± 0.17; (323.15 K) 2.54 ± 0.17; (333.15 K) 2.58 ± 0.18; (343.15 K) 2.6 ± 0.18.
On the same counts, the results for `CCCCCCCCCCCCCC` [tetradecane] + CO[PH](=O)[O-].Cn1cc[n+](C)c1 are 3560 ± 250, 3220 ± 220, 2980 ± 210 and 2890 ± 200.
Consider `C#CCCCCC` [1-heptyne] + CCn1cc[n+](C)c1.CO[PH](=O)[O-], for which the activity coefficient is 10.2 ± 0.7 (313.15 K), 11.1 ± 0.8 (333.15 K), 11.8 ± 0.8 (353.15 K) and 12 ± 0.8 (373.15 K).
`CC1CCCCC1` [methylcyclohexane] + CCn1cc[n+](C)c1.CO[PH](=O)[O-]: the activity coefficient runs as follows: (313.15 K) 211 ± 15; (333.15 K) 70.8 ± 4.9.
The corresponding values for `CCN(CC)CC` [triethylamine] + CCn1cc[n+](C)c1.CO[PH](=O)[O-] are 30.2 ± 2.1 and 48 ± 3.3.
As for `c1ccncc1` [pyridine] + CO[PH](=O)[O-].Cn1cc[n+](C)c1, the activity coefficient is, setting by setting: (313.15 K) 2.15 ± 0.15; (323.15 K) 2.16 ± 0.15; (333.15 K) 2.17 ± 0.15; (343.15 K) 2.19 ± 0.15.
On to `CO` [methanol] + CCn1cc[n+](C)c1.CO[PH](=O)[O-], for which the activity coefficient came out at 0.072 ± 0.03 (333.15 K), 0.078 ± 0.03 (353.15 K) and 0.088 ± 0.03 (373.15 K).
Turning to `ClCCl` [dichloromethane] + CCn1cc[n+](C)c1.CO[PH](=O)[O-], the activity coefficient is 0.502 ± 0.038 (313.15 K), 0.642 ± 0.044 (333.15 K) and 0.798 ± 0.052 (353.15 K).
Consider `C1COCCO1` [1,4-dioxane] + CCn1cc[n+](C)c1.CO[PH](=O)[O-], for which the activity coefficient is, setting by setting: (313.15 K) 3.4 ± 0.23; (333.15 K) 3.55 ± 0.24; (353.15 K) 3.87 ± 0.26; (373.15 K) 4.33 ± 0.29.
On the same counts, the results for `Cc1ccc(C)cc1` [1,4-dimethylbenzene] + CCn1cc[n+](C)c1.CO[PH](=O)[O-] are 16.9 ± 1.2, 18 ± 1.2, 19.3 ± 1.3 and 21.9 ± 1.5.
For the compound `ClC(Cl)(Cl)Cl` [tetrachloromethane] + CCn1cc[n+](C)c1.CO[PH](=O)[O-], the activity coefficient runs as follows: (313.15 K) 4.38 ± 0.3; (333.15 K) 4.96 ± 0.34.
In the case of `ClCCl` [dichloromethane] + CO[PH](=O)[O-].Cn1cc[n+](C)c1, the activity coefficient (313.15 K) turned out to be 0.57 ± 0.04, the activity coefficient (323.15 K) is 0.65 ± 0.04, the activity coefficient (333.15 K) is 0.72 ± 0.05 and the activity coefficient (343.15 K) is 0.77 ± 0.05.
The corresponding values for `Cc1ccccc1C` [1,2-dimethylbenzene] + CO[PH](=O)[O-].Cn1cc[n+](C)c1 are 19.2 ± 1.3, 19.1 ± 1.3, 18.6 ± 1.3 and 18.5 ± 1.3.
Consider `C1COCCO1` [1,4-dioxane] + CO[PH](=O)[O-].Cn1cc[n+](C)c1, for which the activity coefficient runs as follows: (313.15 K) 3.73 ± 0.25; (323.15 K) 3.72 ± 0.25; (333.15 K) 3.69 ± 0.25; (343.15 K) 3.66 ± 0.25.
In the case of `CC(C)CO` [2-methyl-1-propanol] + CCn1cc[n+](C)c1.CO[PH](=O)[O-], the activity coefficient by setting is: (353.15 K) 0.292 ± 0.031; (373.15 K) 0.309 ± 0.031.
On to `C#CCCCCC` [1-heptyne] + CO[PH](=O)[O-].Cn1cc[n+](C)c1, for which the activity coefficient by setting is: (313.15 K) 22 ± 1.5; (323.15 K) 23.5 ± 1.6; (333.15 K) 23.5 ± 1.6; (343.15 K) 24.9 ± 1.7.
With `C#CCCCC` [1-hexyne] + CCn1cc[n+](C)c1.CO[PH](=O)[O-], the activity coefficient by setting is: (313.15 K) 6.24 ± 0.43; (333.15 K) 6.73 ± 0.46; (353.15 K) 7.14 ± 0.49; (373.15 K) 7.56 ± 0.52.
The corresponding values for `Cc1ccccc1C` [1,2-dimethylbenzene] + CCn1cc[n+](C)c1.CO[PH](=O)[O-] are 14.4 ± 1, 15 ± 1, 16.2 ± 1.1 and 18.8 ± 1.3.
Take `CCO` [ethanol] + CO[PH](=O)[O-].Cn1cc[n+](C)c1: for the setting “343.15 K”, the activity coefficient was 0.16 ± 0.03.
As for `CCCCCCCCCCC` [undecane] + CCn1cc[n+](C)c1.CO[PH](=O)[O-], the activity coefficient runs as follows: (313.15 K) 1340 ± 93; (333.15 K) 1080 ± 74; (353.15 K) 888 ± 61.
For `CCCCCCCCCCCCCC` [tetradecane] + CCn1cc[n+](C)c1.CO[PH](=O)[O-], the activity coefficient reads like this: (313.15 K) 3490 ± 240; (333.15 K) 3010 ± 210; (353.15 K) 2610 ± 180; (373.15 K) 2270 ± 160.
Regarding `C#CCCCC` [1-hexyne] + CO[PH](=O)[O-].Cn1cc[n+](C)c1, the activity coefficient was 12.7 ± 0.87 (313.15 K), 13 ± 0.88 (323.15 K), 13.4 ± 0.91 (333.15 K) and 13.7 ± 0.93 (343.15 K).
The corresponding values for `CCCC(C)=O` [pentan-2-one] + CO[PH](=O)[O-].Cn1cc[n+](C)c1 are 10.6 ± 0.7, 10.5 ± 0.7, 10.3 ± 0.7 and 10.1 ± 0.7.
